Test results: paper PMC3626286 (Chemical research in toxicology, 2013)
“And” between values parts separate entries of the source, which are not always exact repeats. Equal entries are not always repeated. “Also recorded” adds a separate entry of the source. Where two headings read alike, the source gives them in different places. Values belong to the molecule of their own block, whether it stands above or below them.

What was measured:
[1] = Chemical stability in 0.1 M potassium phosphate buffer; assay type: physicochemical; conditions: for duration of incubation with no detectable hydrolysis: 1 μM, 0.1 M potassium phosphate buffer pH 7.4, 37°C, data not shown; for chemical stability over the 24 h incubation (in words): buffer, physiological conditions
[2] = tested on: rat hepatocytes; assay type: in vitro ADME; conditions: for fold decrease in concentration on ice versus 37°C: 0°C versus 37°C; for concentration formed at 60 min / fold decrease in concentration on ice versus 37°C: 60 min
[3] = tested on: equine liver GST; conditions: after 30 min incubation; cited from earlier work
[4] = tested on: rat hepatocytes; conditions: cited from earlier work
[5] = tested on: rat hepatocytes; conditions: complete inhibition of acyl glucuronidation; cited from earlier work
[6] = Chemical reactivity with GSH in buffer in the absence of GST; assay type: physicochemical; conditions: 1 μM, GSH 10 mM, 0.1 M potassium phosphate buffer pH 7.4, 37°C, without GST
[7] = tested on: equine liver glutathione-S-transferase (GST); conditions: 1 μM, GSH 10 mM, equine liver GST 30 units/ml, pH 7.4, 37°C
[8] = cited from earlier work
[9] = tested on: rat hepatocytes; conditions: cited from earlier work; remark: listed apart in the source
[10] = MFA 100 μM, rat hepatocytes, 37°C
[11] = inhibitor 1 mM co-incubated with MFA
[12] = in vitro in physiological buffer

duration of incubation with no detectable hydrolysis [1]: at least 24 h | chemical stability over the 24 h incubation (in words) [1]: stable | concentration formed at 60 min [2, 10]: 1700 nM | concentration formed at 60 min ([2]; rat hepatocytes on ice (0°C)): 83.9 nM | fold decrease in concentration on ice versus 37°C ([2]; rat hepatocytes): 20 fold
SMILES: Cc1cccc(Nc2ccccc2C(=O)SC[C@H](NC(=O)CC[C@H](N)C(=O)O)C(=O)NCC(=O)O)c1C [MFA-GSH, mefenamic acid-S-acyl-glutathione]
degradation in the presence of equine liver GST [3]: 10–11% | metabolic half life [4]: ~ 8 min

SMILES: CC(C(=O)O)c1ccccc1 (centres unmarked) [2-phenylpropionic acid]
decrease in covalent adduct formation [5]: 18.7%

duration of incubation with no detectable hydrolysis [1]: at least 24 h | chemical stability over the 24 h incubation (in words) [1]: chemically stable | fold lower concentration than MFA-GSH [2, 10]: 19 fold | maximum concentration formed [2, 10]: 90.2 nM | time of maximum concentration [2, 10]: 20 sec and ~ 20 sec | concentration at which formation levelled off ([2]; rat hepatocytes on ice (0°C)): 94.1 nM | time to maximum concentration ([2]; rat hepatocytes on ice (0°C)): 1 min | reactivity towards GSH (rate of MFA-GSH formation) in the presence of GST [7]: 1.25±0.28 nM MFA-GSH/min
SMILES: Cc1cccc(Nc2ccccc2C(=O)OP(=O)(O)OC[C@H]2O[C@@H](n3cnc4c(N)ncnc43)[C@H](O)[C@@H]2O)c1C [MFA-AMP, mefenamic acid-acyl-adenylate]
transacylation of GSH (rate of MFA-GSH formation) [6]: 0.21±0.02 nM MFA-GSH/min

SMILES: C[C@H](C(=O)O[C@@H]1O[C@H](C(=O)O)[C@@H](O)[C@H](O)[C@H]1O)c1ccccc1 [(S)-2-phenylpropionic-1-β-O-acyl glucuronide]
half-life of degradation (t1/2) [8]: 2.4 h

SMILES: CCCCCCCCCCCC(=O)O [lauric acid]
inhibition of MFA-CoA formation [9, 11]: 58% | inhibition of MFA-GSH formation [9, 11]: 66%

SMILES: CC(C)(COP(=O)(O)OP(=O)(O)OC[C@H]1O[C@@H](n2cnc3c(N)ncnc32)[C@H](O)[C@@H]1OP(=O)(O)O)[C@@H](O)C(=O)NCCC(=O)NCCSC(=O)Cc1ccccc1 [phenylacetyl-S-acyl-CoA]
stability after one day of incubation (in words) [8]: completely stable

SMILES: Cc1cc(CC(=O)O[C@@H]2O[C@H](C(=O)O)[C@@H](O)[C@H](O)[C@H]2O)n(C)c1C(=O)c1ccc(Cl)cc1 [zomepirac-1-β-O-acyl glucuronide]
half-life of degradation (t1/2) [8]: 0.45 h

concentration formed at 60 min [2, 10]: 42200 nM | reactivity towards GSH (rate of MFA-GSH formation) in the presence of GST [7]: 0.07±0.01 nM MFA-GSH/min
SMILES: Cc1cccc(Nc2ccccc2C(=O)O[C@@H]2O[C@H](C(=O)O)[C@@H](O)[C@H](O)[C@H]2O)c1C [MFA-1-O-G, mefenamic acid-1-O-acyl-glucuronide, reference compound]
transacylation of GSH (rate of MFA-GSH formation) [6]: 0.02±0.02 nM MFA-GSH/min | formation on ice (in words) ([2]; rat hepatocytes on ice (0°C)): nearly undetectable; also recorded: no MFA-1-O-G formation | half life of degradation ([8]; buffer under physiological conditions): ~ 16 h | half life of degradation ([8]; previously reported, also confirmed in the authors' laboratory): 16.5 h

duration of incubation with no detectable hydrolysis [1]: at least 24 h | fold lower concentration than MFA-GSH [2, 10]: 37 fold | time point until which undetectable [2, 10]: 4 min | concentration formed at 60 min [2, 10]: 45.6 nM | time point until which undetectable ([2]; rat hepatocytes on ice (0°C)): 20 min and 10 min | concentration formed at 60 min ([2]; rat hepatocytes on ice (0°C)): 14.1 nM | fold decrease in concentration on ice versus 37°C ([2]; rat hepatocytes): 3.2 fold | reactivity towards GSH (rate of MFA-GSH formation) in the presence of GST [7]: 3.38±0.04 nM MFA-GSH/min
SMILES: Cc1cccc(Nc2ccccc2C(=O)SCCNC(=O)CCNC(=O)[C@H](O)C(C)(C)COP(=O)(O)OP(=O)(O)OC[C@H]2O[C@@H](n3cnc4c(N)ncnc43)[C@H](O)[C@@H]2OP(=O)(O)O)c1C [MFA-CoA, mefenamic acid-S-acyl-Coenzyme A]
transacylation of GSH (rate of MFA-GSH formation) [6]: 2.38±0.64 nM MFA-GSH/min

SMILES: CC(C)(Oc1ccc(Cl)cc1)C(=O)SCCNC(=O)CCNC(=O)C(O)C(C)(C)COP(=O)(O)OP(=O)(O)OCC1OC(n2cnc3c(N)ncnc32)C(O)C1OP(=O)(O)O (centres unmarked) [clofibric acid-S-acyl-CoA]
degradation half life [8, 12]: 504 h | hydrolysis per day [8, 12]: ~ 2 % hydrolysis/day

SMILES: CC1(C)[C@H]2CC[C@]1(C)[C@H](O)C2 [(−)-borneol]
decrease in MFA-1-O-G formation ([9]; inhibitor 1 mM co-incubated with MFA (10 μM, 10 min)): 91% | inhibition of MFA-GSH formation [9, 11]: no inhibition
